{"source": "paper PMC6437697", "about": "(Journal of Medicinal Chemistry, 2019)", "test_in_all_cases": "KINOMEscan", "type_in_all_cases": "binding", "details_in_all_cases": "read-out: % control activity remaining", "key": {"TBK1": {"molecular_target": "T1, TBK1 (Homo sapiens, UniProt Q9UHD2)", "T1 construct": "purchased Eurofins DiscoverX KINOMEscan", "T1 sequence (Q9UHD2 1-729)": "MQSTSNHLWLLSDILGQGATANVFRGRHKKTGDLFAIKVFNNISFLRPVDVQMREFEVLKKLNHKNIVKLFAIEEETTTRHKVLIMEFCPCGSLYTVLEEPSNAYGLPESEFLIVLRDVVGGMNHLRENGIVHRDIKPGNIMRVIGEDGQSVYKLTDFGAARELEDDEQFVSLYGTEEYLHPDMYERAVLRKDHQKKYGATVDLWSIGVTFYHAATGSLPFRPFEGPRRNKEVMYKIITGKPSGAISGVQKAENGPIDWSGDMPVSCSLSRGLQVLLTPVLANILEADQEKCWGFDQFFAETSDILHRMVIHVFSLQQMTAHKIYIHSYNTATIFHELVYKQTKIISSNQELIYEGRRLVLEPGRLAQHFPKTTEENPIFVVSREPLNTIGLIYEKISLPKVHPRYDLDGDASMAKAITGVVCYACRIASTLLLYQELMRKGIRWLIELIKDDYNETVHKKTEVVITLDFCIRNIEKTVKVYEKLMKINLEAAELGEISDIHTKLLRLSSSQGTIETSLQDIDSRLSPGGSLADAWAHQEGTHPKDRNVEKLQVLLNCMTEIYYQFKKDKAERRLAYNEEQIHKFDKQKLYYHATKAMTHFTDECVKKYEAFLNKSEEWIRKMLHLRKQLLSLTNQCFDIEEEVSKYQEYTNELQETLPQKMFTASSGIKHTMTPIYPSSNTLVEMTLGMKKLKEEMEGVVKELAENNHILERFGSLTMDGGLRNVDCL"}, "BIKE": {"molecular_target": "T2, BIKE (Homo sapiens, UniProt Q9NSY1)", "T2 construct": "purchased Eurofins DiscoverX KINOMEscan"}, "EPHA3": {"molecular_target": "T3, EPHA3 (Homo sapiens, UniProt P29320)", "T3 construct": "purchased Eurofins DiscoverX KINOMEscan", "T3 sequence (P29320 21-983)": "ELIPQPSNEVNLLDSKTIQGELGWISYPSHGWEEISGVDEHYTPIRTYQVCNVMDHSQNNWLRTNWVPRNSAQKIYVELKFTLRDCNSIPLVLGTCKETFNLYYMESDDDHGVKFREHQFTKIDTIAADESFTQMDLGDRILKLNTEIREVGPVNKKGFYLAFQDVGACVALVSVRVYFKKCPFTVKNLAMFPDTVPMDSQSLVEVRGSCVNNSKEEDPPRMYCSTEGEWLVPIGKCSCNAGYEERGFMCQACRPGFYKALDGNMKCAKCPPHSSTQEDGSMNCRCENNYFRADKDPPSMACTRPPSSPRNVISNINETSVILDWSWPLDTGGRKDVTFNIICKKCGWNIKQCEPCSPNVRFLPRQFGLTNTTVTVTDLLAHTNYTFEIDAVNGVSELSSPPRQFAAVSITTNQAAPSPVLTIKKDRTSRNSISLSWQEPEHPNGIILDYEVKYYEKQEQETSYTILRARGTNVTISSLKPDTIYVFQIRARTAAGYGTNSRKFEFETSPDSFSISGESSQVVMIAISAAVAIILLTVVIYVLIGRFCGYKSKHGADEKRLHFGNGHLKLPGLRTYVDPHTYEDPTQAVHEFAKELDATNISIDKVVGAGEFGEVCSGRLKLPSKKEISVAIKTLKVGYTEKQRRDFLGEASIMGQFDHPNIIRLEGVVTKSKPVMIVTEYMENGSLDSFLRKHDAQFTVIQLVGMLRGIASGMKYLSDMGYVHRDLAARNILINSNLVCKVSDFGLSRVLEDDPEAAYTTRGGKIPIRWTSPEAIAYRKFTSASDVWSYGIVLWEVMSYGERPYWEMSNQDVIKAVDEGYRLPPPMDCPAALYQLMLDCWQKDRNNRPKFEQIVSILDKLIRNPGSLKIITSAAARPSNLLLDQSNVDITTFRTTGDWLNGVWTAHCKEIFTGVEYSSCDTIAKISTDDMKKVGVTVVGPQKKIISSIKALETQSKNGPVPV"}, "PLK4": {"molecular_target": "T4, PLK4 (Homo sapiens, UniProt O00444)", "T4 construct": "purchased Eurofins DiscoverX KINOMEscan", "T4 sequence (O00444 1-970)": "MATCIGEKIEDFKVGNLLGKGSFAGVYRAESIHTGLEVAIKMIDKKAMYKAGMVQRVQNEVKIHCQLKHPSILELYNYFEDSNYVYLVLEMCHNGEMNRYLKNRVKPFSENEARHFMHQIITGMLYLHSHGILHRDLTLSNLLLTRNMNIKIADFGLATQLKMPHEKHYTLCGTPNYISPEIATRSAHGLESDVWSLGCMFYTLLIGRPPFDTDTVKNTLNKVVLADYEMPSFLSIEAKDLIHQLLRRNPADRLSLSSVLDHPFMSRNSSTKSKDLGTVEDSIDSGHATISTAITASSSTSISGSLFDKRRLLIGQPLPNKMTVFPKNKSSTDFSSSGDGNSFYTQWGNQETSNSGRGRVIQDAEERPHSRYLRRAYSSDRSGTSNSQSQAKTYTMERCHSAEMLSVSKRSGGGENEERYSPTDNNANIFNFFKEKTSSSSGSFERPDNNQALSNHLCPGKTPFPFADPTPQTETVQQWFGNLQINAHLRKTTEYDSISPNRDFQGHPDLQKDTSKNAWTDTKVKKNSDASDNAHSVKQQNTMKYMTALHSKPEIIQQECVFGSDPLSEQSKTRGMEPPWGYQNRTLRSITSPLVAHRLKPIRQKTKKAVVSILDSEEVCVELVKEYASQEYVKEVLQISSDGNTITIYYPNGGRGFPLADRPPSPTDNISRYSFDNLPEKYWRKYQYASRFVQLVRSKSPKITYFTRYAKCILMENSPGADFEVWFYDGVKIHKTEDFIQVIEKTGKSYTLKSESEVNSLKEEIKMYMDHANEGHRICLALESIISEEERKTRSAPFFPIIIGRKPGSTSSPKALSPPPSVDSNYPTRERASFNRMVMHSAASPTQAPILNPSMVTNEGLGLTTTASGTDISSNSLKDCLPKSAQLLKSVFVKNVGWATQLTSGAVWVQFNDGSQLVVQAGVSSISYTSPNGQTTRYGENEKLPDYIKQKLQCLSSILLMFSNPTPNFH"}, "PIK3CG": {"molecular_target": "T5, PIK3CG (Homo sapiens, UniProt P48736)", "T5 construct": "purchased Eurofins DiscoverX KINOMEscan"}, "TNK2": {"molecular_target": "T6, TNK2 (Homo sapiens, UniProt Q07912)", "T6 construct": "purchased Eurofins DiscoverX KINOMEscan"}, "PIK3CB": {"molecular_target": "T7, PIK3CB (Homo sapiens, UniProt P42338)", "T7 construct": "purchased Eurofins DiscoverX KINOMEscan"}, "[1]": {"molecular_target": "T8, ABL1(F317L)-phosphorylated (Homo sapiens, UniProt P00519, F317L)", "T8 construct": "purchased Eurofins DiscoverX KINOMEscan", "T8 sequence (P00519 whole entry F317L)": "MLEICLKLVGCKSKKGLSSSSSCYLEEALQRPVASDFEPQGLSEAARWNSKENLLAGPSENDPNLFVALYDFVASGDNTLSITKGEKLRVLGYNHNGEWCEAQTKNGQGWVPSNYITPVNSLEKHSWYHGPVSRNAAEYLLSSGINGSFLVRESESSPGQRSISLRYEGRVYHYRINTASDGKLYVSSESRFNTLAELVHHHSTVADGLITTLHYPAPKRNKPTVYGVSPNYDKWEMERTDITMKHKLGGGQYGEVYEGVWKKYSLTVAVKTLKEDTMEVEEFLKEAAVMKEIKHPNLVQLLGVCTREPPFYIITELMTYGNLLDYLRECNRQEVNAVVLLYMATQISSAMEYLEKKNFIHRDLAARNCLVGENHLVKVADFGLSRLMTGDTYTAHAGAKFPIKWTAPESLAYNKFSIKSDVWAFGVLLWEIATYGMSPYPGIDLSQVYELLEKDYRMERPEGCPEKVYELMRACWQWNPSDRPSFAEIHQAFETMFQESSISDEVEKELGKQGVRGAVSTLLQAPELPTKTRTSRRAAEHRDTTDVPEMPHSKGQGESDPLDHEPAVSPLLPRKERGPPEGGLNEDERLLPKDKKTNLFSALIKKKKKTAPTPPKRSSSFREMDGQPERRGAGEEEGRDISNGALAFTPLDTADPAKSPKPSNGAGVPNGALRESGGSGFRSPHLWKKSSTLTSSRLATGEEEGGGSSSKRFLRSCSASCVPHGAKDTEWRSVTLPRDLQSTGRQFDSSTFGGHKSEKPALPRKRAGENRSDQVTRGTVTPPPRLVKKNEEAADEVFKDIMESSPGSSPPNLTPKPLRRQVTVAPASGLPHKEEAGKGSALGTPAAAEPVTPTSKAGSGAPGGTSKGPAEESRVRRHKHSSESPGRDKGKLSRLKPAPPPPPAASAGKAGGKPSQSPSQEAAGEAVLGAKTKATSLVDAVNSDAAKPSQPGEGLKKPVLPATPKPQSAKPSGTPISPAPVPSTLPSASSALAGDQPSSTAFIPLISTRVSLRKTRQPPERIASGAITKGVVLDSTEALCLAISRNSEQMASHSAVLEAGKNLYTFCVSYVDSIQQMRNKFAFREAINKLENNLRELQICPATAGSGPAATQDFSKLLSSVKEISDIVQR"}, "p38-alpha": {"molecular_target": "T9, p38-alpha (Homo sapiens, UniProt Q16539)", "T9 construct": "purchased Eurofins DiscoverX KINOMEscan", "T9 sequence (Q16539 whole entry)": "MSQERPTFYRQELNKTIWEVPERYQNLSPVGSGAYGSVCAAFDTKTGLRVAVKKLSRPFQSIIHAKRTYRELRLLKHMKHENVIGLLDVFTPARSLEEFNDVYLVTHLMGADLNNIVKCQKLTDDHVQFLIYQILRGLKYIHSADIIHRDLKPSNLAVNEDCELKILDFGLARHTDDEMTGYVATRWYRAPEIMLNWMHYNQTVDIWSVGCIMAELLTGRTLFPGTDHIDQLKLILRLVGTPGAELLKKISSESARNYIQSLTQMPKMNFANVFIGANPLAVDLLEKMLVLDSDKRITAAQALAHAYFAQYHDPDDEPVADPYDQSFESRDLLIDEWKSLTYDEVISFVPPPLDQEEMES"}}}
{"compound": "CN1CCC(CNc2cc(Cl)nn3c(-c4cc5nc(Nc6ccccc6)[nH]c5cc4F)cnc23)CC1", "note": "[compound 31, 6-Chloro-3-(6-fluoro-2-(phenylamino)-1H-benzo[d]imidazol-5-yl)-N-((1-methylpiperidin-4-yl)methyl)imidazo[1,2-b]pyridazin-8-amine]", "values": [{"measurement": "remaining binding at 1 µM", "setting": "TBK1", "result": 76, "unit": "%"}, {"measurement": "remaining binding at 1 µM", "setting": "BIKE", "result": 91, "unit": "%"}, {"measurement": "remaining binding at 1 µM", "setting": "EPHA3", "result": 100, "unit": "%"}, {"measurement": "remaining binding at 1 µM", "setting": "PLK4", "result": 99, "unit": "%"}, {"measurement": "remaining binding at 1 µM", "setting": "PIK3CG", "result": 100, "unit": "%"}, {"measurement": "remaining binding at 1 µM", "setting": "TNK2", "result": 100, "unit": "%"}, {"measurement": "remaining binding at 1 µM", "setting": "PIK3CB", "result": 97, "unit": "%"}, {"measurement": "remaining binding at 1 µM", "setting": "[1]", "result": 73, "unit": "%"}, {"measurement": "remaining binding at 1 µM", "setting": "p38-alpha", "result": 95, "unit": "%"}]}
{"compound": "O=C(CN1CCOCC1)N[C@H]1CC[C@H](Nc2cc(Cl)nn3c(-c4ccc5[nH]ncc5c4)cnc23)CC1", "note": "[compound 26]", "values": [{"measurement": "remaining binding at 1 µM", "setting": "TBK1", "result": 90, "unit": "%"}, {"measurement": "remaining binding at 1 µM", "setting": "BIKE", "result": 13, "unit": "%"}, {"measurement": "remaining binding at 1 µM", "setting": "EPHA3", "result": 88, "unit": "%"}, {"measurement": "remaining binding at 1 µM", "setting": "PLK4", "result": 100, "unit": "%"}, {"measurement": "remaining binding at 1 µM", "setting": "PIK3CG", "result": 100, "unit": "%"}, {"measurement": "remaining binding at 1 µM", "setting": "TNK2", "result": 93, "unit": "%"}, {"measurement": "remaining binding at 1 µM", "setting": "PIK3CB", "result": 93, "unit": "%"}, {"measurement": "remaining binding at 1 µM", "setting": "[1]", "result": 6.2, "unit": "%"}, {"measurement": "remaining binding at 1 µM", "setting": "p38-alpha", "result": 99, "unit": "%"}]}
{"compound": "Clc1cc(NCC2CC2)c2ncc(-c3ccc4[nH]ncc4c3)n2n1", "note": "[compound 2, 6-Chloro-N-(cyclopropylmethyl)-3-(1H-indazol-5-yl)imidazo[1,2-b]pyridazin-8-amine]", "values": [{"measurement": "remaining binding at 1 µM", "setting": "TBK1", "result": 71, "unit": "%"}, {"measurement": "remaining binding at 1 µM", "setting": "BIKE", "result": 34, "unit": "%"}, {"measurement": "remaining binding at 1 µM", "setting": "EPHA3", "result": 78, "unit": "%"}, {"measurement": "remaining binding at 1 µM", "setting": "PLK4", "result": 87, "unit": "%"}, {"measurement": "remaining binding at 1 µM", "setting": "PIK3CG", "result": 78, "unit": "%"}, {"measurement": "remaining binding at 1 µM", "setting": "TNK2", "result": 86, "unit": "%"}, {"measurement": "remaining binding at 1 µM", "setting": "PIK3CB", "result": 82, "unit": "%"}, {"measurement": "remaining binding at 1 µM", "setting": "[1]", "result": 60, "unit": "%"}, {"measurement": "remaining binding at 1 µM", "setting": "p38-alpha", "result": 100, "unit": "%"}]}
